Where a name gives a salt, the structure may show the parent alone. Read-outs that look alike come from different tables or passages of the source.
Experiments:
male ferrets = assay: Antiemetic action against cisplatin-induced vomiting; type: in vivo; settings: test compound 3 mg/kg intravenously; cisplatin 10 mg/kg intraperitoneal; observed over six hours; inhibition vs control group, number of episodes
Procedure: A test was conducted using male ferrets (around 1.2 kg body weight) as follows. Vomiting was induced by intraperitoneal administration of 10 mg/kg of cisplatin to the ferrets in a volume of 3 ml/kg. […] Each test compound was administered intravenously through radial skin at a dose of 3 mg/kg, and immediately after the administration, cisplatin was administered intraperitoneally. Then vomiting symptoms due to cisplatin was observed over six hours. […] The results are shown in Table 2 in terms of rates of inhibition to a control group using the number of times symptoms of vomiting occurred as an index.

[1] = target: T1, NK1 TACHYKININ RECEPTOR, HUMAN(CHO) (Homo sapiens, UniProt P25103); assay: biochemical
T1 sequence (P25103 whole entry): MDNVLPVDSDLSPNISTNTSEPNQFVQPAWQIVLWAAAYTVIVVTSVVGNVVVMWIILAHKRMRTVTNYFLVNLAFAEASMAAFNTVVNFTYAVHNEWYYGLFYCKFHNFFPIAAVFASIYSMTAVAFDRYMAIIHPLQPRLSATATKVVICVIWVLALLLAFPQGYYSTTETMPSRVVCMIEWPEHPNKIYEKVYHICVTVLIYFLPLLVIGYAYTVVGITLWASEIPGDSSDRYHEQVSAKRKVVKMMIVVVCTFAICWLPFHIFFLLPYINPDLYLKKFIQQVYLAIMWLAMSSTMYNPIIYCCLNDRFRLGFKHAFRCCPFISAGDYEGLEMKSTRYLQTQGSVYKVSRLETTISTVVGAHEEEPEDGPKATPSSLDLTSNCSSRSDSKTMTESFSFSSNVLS
Procedure: (§1) As a sample, NK1 TACHYKININ RECEPTOR, HUMAN(CHO) diluted with incubation buffer (20 mM HEPES/NaOH buffer containing 1 mM MgCl2, 0.1% BSA: pH 7.4) was used (18.75 µg protein/ml). […] And 20 µl of CP-99,994 (final concentration of 1.5 µM) and 20 µl of distilled water were added to determine the amount of nonspecific binding and the amount of total binding, respectively. […] After one hour of incubation, the incubated mixture was filtered with suction and washed with a wash buffer (50 mM Tris/HCl buffer: pH 7.4) four times. The membrane fitted to each well of the MultiScreen was completely dried and punched inside each vial, and 5 ml of cocktail was added to give a sample to be measured.

[2] = target: T1, NK1 TACHYKININ RECEPTOR, HUMAN(CHO)
Procedure: as §1

Row | Compound | Rate of Inhibition (%) Retching (male ferrets) [%] | Rate of Inhibition (%) Vomiting (male ferrets) [%] | Ki [1] [nM] | Ki [2] [nM]
1 | Cl.c1ccc([C@@H]2NCCC[C@@H]2NCc2cc(-n3cnnn3)cc3c2OCC3)cc1 [Example 3, (2S,3S)-3-[(5-(tetrazole-1-yl)-2,3-dihydrobenzofuran-7-yl)methyl]amino-2-phenylpiperidine hydrochloride] | 59.1 | 61.0 | 0.18 | –
2 | c1ccc([C@@H]2NCCC[C@@H]2NCc2cc(-c3cccs3)cc3c2OCC3)cc1 [Example 6, (2S,3S)-3-[(5-(thiophene-2-yl)-2,3-dihydrobenzofuran-7-yl)methyl]amino-2-phenylpiperidine hydrochloride] | – | – | 0.35 | –
3 | c1ccc([C@@H]2NCCC[C@@H]2NCc2cc(-c3ccsc3)cc3c2OCC3)cc1 [Example 7, (2S,3S)-3-[(5-(thiophene-3-yl)-2,3-dihydrobenzofuran-7-yl)methyl]amino-2-phenylpiperidine hydrochloride] | – | – | 0.35 | –
4 | Cl.FC(F)(F)c1ccc(-c2cc3c(c(CN[C@H]4CCCN[C@H]4c4ccccc4)c2)OCC3)cc1 [Example 12, (2S,3S)-3-[(5-(4-trifluoromethylphenyl)-2,3-dihydrobenzofuran-7-yl)methyl]amino-2-phenylpiperidine hydrochloride] | 88.4 | 91.1 | 1.01 | –
5 | Cl.FC(F)(F)c1nc(-c2cc3c(c(CN[C@H]4CCCN[C@H]4c4ccccc4)c2)OCC3)no1 [Example 15, (2S, 3S)-3-[(5-(5-trifluoromethyl-1,2,4-oxadiazole-3-yl)-2,3-dihydrobenzofuran-7-yl)methyl]amino-2-phenylpiperidine hydrochloride] | 63.2 | 66.8 | – | –
6 | Cl.c1ccc([C@@H]2NCCC[C@@H]2NCc2c3c(cc4c2OCC4)OCC3)cc1 [Example 16, (2S,3S)-3-[(2,3,6,7-tetrahydrobenzo[1,2-b:4,5-b']difuran-4-yl)methyl]amino-2-phenylpiperidine hydrochloride] | 58.7 | 62.6 | 1.53 | –
7 | (2S,3S)-3-[(5-phenyl-2,3-dihydrobenzofuran-7-yl)methyl]amino-2-phenylpiperidine hydrochloride [Example 9] | 68.4 | 59.3 | – | 0.41

Reference: patent publication EP1219619B1, “3-AMINO-2-[…] DERIVATIVES AS SUBSTANCE P ANTAGONISTS” (HISAMITSU PHARMACEUTICAL CO. INC., priority 1999, dated 2001)
